From US20080293696A1, “2-Aminoarylcarboxamides Useful as Cancer Chemotherapeutic Agents” (Bayer Pharmaceuticals Corporation, priority 2004, published 2008) come the findings set out here.

Each structure is given as a SMILES string. Structures can show the parent of a compound that is named as a salt.

For one test, the system named is PAKT/PKB (p-(S473) AKT) in H209 small cell lung carcinoma cells stimulated with Stem Cell Factor. The experiment in a line: PAKT/PKB Cytoblot Assay with H209 cells (SCF-stimulated p-(S473) AKT). Format: cell-based. Particulars: Homo sapiens, NCI-H209, compound 1 hour, SCF 25 ng/mL 5 minutes, group: between 500 nM and 1 μM (units in value). The procedure:
PAKT/PKB Cytoblot Assay Protocol with H209 Cells
H209 small cell lung carcinoma cells in log phase were plated at 50,000 cells/well in 96-well poly-lysine coated, clear bottom/black-sided plates (BD Cat # 354640) in 100 μl RPMI medium containing 0.1% (w/v) BSA, and incubated overnight at 37° C. in 5% CO2 incubator. The following day, compounds (10 mM stock solutions in DMSO) were added to the plates to generate final concentrations of 0.0, 0.01, 0.03, 0.1, 0.3, 1.0, 3.0 and 10 μM for IC50 determinations and incubated for 1 hour at 37° C. Cells were then left untreated or stimulated with Stem Cell Factor (SCF: Biosource Cat # PHC2116) at a final concentration of 25 ng/mL for 5 minutes at 37° C. in 5% CO2 incubator. The media was then removed using a vacuum manifold and the cells were washed once with Tris Buffered Saline (TBS).
Cells were then fixed by adding 200 μl of cold 3.7% (v/v) formaldehyde in TBS to each well for 15 minutes at 4° C. After removal of the formaldehyde, the cells were treated with the addition of 50 μl of methanol (at −20° C.) to each well for 5 minutes. After removal of the methanol, […] of 1% (w/v) BSA in TBS was added to each well to block non-specific antibody binding sites and the plate was incubated at room temperature for 30 minutes.
After removal of the blocking buffer, 50 μl of p-(S473) AKT rabbit polyclonal antibody (Cell Signaling Cat # 9277S) was added at a dilution of 1:250 in 0.1% (w/v) BSA in TBS, and the plate was incubated at room temperature for 1 hour. Plates were then washed 3 times with cold TBS containing 0.05% (v/v) Tween 20 (TBS-T) and […] of Horseradish peroxidase (HRP)-conjugated goat-anti-rabbit antibody (Amersham Cat # NA934V) at a dilution of 1:250 in TBS-T was added and the plate was incubated at room temperature for 1 h. After washing with ice-cold TBS-T four times, 100 μl of Enhanced Chemiluminescence (ECL) reagent (Amersham Cat# RPN2209) was added to each well and mixed on a mini-orbital shaker for 1 min. The plate was then read on a Perkin Elmer Victor 5 Multilabel Counter (#1420-0421).
In turn, `CN(C)CCCCNC(=O)c1cc(CNc2ccccc2C(=O)Nc2ccc3c(c2)OC(F)(F)O3)ccn1` [Example 90, 4-{[(2-{[(2,2-difluoro-1,3-benzodioxol-5-yl)amino]carbonyl}phenyl)amino]methyl}-N-[4-(dimethylamino)butyl]pyridine-2-carboxamide] registered an IC50 of 500 to 1000 nM.

The test is the same for the next values; noted with them: Homo sapiens, NCI-H209, compound 1 hour, SCF 25 ng/mL 5 minutes, group: between 1 and 3 μM.
`O=C(NC1CCN(Cc2ccccc2)C1)c1cc(CNc2ccccc2C(=O)Nc2ccc3c(c2)OC(F)(F)O3)ccn1` (stereo not shown) [Example 118, N-(1-benzylpyrrolidin-3-yl)-4-{[(2-{[(2,2-difluoro-1,3-benzodioxol-5-yl)amino]carbonyl}phenyl)amino]methyl}pyridine-2-carboxamide]: the IC50 fell in the range of 1000 to 3000 nM.

Compound `COc1ccc(CCNC(=O)c2cc(CNc3ccccc3C(=O)Nc3ccc4c(c3)OC(F)(F)O4)ccn2)cc1` [Example 122, 4-{[(2-{[(2,2-difluoro-1,3-benzodioxol-5-yl)amino]carbonyl}phenyl)amino]methyl}-N-[2-(4-methoxyphenyl)ethyl]pyridine-2-carboxamide] yielded a concentration for half-maximal inhibition (IC50) of 1000 to 3000 nM.

The compound `O=C(NCCc1cccs1)c1cc(CNc2ccccc2C(=O)Nc2ccc3c(c2)OC(F)(F)O3)ccn1` [Example 128, 4-{[(2-{[(2,2-difluoro-1,3-benzodioxol-5-yl)amino]carbonyl}phenyl)amino]methyl}-N-[2-(2-thienyl)ethyl]pyridine-2-carboxamide] displayed an IC50 of 1000 to 3000 nM.

With `COc1cccc(C(=O)Nc2ccc3c(c2)OC(F)(F)C(F)(F)O3)c1NCc1ccncc1` [Example 7, 3-methoxy-2-[(pyridin-4-ylmethyl)amino]-N-(2,2,3,3-tetrafluoro-2,3-dihydro-1,4-benzodioxin-6-yl)benzamide], the IC50 fell in the range of 1000 to 3000 nM.

Compound `CCOc1ccc(CCNC(=O)c2cc(CNc3ccccc3C(=O)Nc3ccc4c(c3)OC(F)(F)O4)ccn2)cc1OC` [Example 125, 4-{[(2-{[(2,2-difluoro-1,3-benzodioxol-5-yl)amino]carbonyl}phenyl)amino]methyl}-N-[2-(4-ethoxy-3-methoxyphenyl)ethyl]pyridine-2-carboxamide] yielded an IC50 of 1000 to 3000 nM.

Compound `N#Cc1cc(CNc2ccc(F)cc2C(=O)Nc2ccc3c(c2)OC(F)(F)C(F)(F)O3)ccn1` [Example 27, 2-{[(2-cyanopyridin-4-yl)methyl]amino}-5-fluoro-N-(2,2,3,3-tetrafluoro-2,3-dihydro-1,4-benzodioxin-6-yl)benzamide] returned an IC50 of 1000 to 3000 nM.

Staying with this test, now noted: Homo sapiens, NCI-H209, compound 1 hour, SCF 25 ng/mL 5 minutes, group: less than 500 nM.
Compound `O=C(NCCCN1CCCC1=O)c1cc(CNc2ccccc2C(=O)Nc2ccc3c(c2)OC(F)(F)O3)ccn1` [Example 123, 4-{[(2-{[(2,2-difluoro-1,3-benzodioxol-5-yl)amino]carbonyl}phenyl)amino]methyl}-N-[3-(2-oxopyrrolodin-1-yl)propyl]pyridine-2-carboxamide] yielded an IC50 of less than 500 nM.

The compound `CCNC(=O)c1cc(CNc2cc(F)ccc2C(=O)Nc2ccc3c(c2)OC(F)(F)O3)ccn1` [Example 47, 4-{[(2-{[(2,2-difluoro-1,3-benzodioxol-5-yl)amino]carbonyl}-5-fluorophenyl)amino]methyl}-N-ethylpyridine-2-carboxamide] showed an IC50 of less than 500 nM.

Compound `O=C(Nc1ccc2c(c1)OC(F)(F)O2)c1ccccc1NCc1ccnc(NCCCn2ccnc2)c1` [Example 146, N-(2,2-difluoro-1,3-benzodioxol-5-yl)-2-{[(2-{[3-(1H-imidazol-1-yl)propyl]amino}pyridin-4-yl)methyl]amino}benzamidebis(trifluoroacetate)] gave an IC50 of less than 500 nM.

`O=C(Nc1ccc2c(c1)OC(F)(F)O2)c1ccccc1NCc1ccnc(NCCOCCO)c1` [Example 138, N-(2,2-difluoro-1,3-benzodioxol-5-yl)-2-{[(2-{[2-(2-hydroxyethoxy)ethyl]amino}pyridin-4-yl)methyl]amino}benzamide trifluoroacetate(salt)] registered an IC50 of less than 500 nM.

As to `O=C(Nc1ccc2c(c1)OC(F)(F)O2)c1cccnc1NCc1ccncc1` [Example 15, N-(2,2-difluoro-1,3-benzodioxol-5-yl)-2-[(pyridin-4-ylmethyl)amino]nicotinamide], the IC50 is less than 500 nM.

In the case of `CN(C)CCCNC(=O)c1cc(CNc2ccccc2C(=O)Nc2ccc3c(c2)OC(F)(F)O3)ccn1` [Example 86, 4-{[(2-{[(2,2-difluoro-1,3-benzodioxol-5-yl)amino]carbonyl}phenyl)amino]methyl}-N-[3-(dimethylamino)propyl]pyridine2-carboxamide], the concentration for half-maximal inhibition (IC50) is less than 500 nM.

`O=C(Nc1ccc2c(c1)OC(F)(F)C(F)(F)O2)c1ccc(F)cc1NCc1ccncc1` [Example 18, 4-fluoro-2-[(pyridin-4-ylmethyl)amino]-N-(2,2,3,3-tetrafluoro-2,3-dihydro-1,4-benzodioxin-6-yl)benzamide] came in with a half-inhibitory concentration (IC50) of less than 500 nM.

On to `Cc1ccc(C(=O)Nc2ccc3c(c2)OC(F)(F)C(F)(F)O3)c(NCc2ccncc2)n1` [Example 13, 6-methyl-2-[(pyridin-4-ylmethyl)amino]-N-(2,2,3,3-tetrafluoro-2,3-dihydro-1,4-benzodioxin-6-yl)nicotinamide], for which the IC50 is less than 500 nM.

For the compound `CN(C)CCNC(=O)c1cc(CNc2ccccc2C(=O)Nc2ccc3c(c2)OC(F)(F)O3)ccn1` [Example 85, 4-{[(2-{[(2,2-difluoro-1,3-benzodioxol-5-yl)amino]carbonyl}phenyl)amino]methyl}-N-[2-(dimethylamino)ethyl]pyridine-2-carboxamide], the IC50 was less than 500 nM.

On to `CC(C)OCCCNc1cc(CNc2ccccc2C(=O)Nc2ccc3c(c2)OC(F)(F)O3)ccn1` [Example 140, N-(2,2-difluoro-1,3-benzodioxol-5-yl)-2-[({2-[(3-isopropoxypropyl)amino]pyridin-4-yl}methyl)amino]benzamide trifluoroacetate], for which the IC50 was less than 500 nM.

Regarding `CN(C)c1nccc(CNc2ccccc2C(=O)Nc2ccc3c(c2)OC(F)(F)O3)n1` [Example 48, N-(2,2-difluoro-1,3-benzodioxol-5-yl)-2-({[2-(dimethylamino)pyrimidin-4-yl]methyl}amino)benzamide], the half-maximal inhibitory concentration (IC50) was less than 500 nM.

Compound `O=C(Nc1ccc2c(c1)OC(F)(F)O2)c1ccccc1NCc1ccnc(NCCO)c1` [Example 134, N-(2,2-difluoro-1,3-benzodioxol-5-yl)-2-[({2-[(2-hydroxyethyl)amino]pyridin-4-yl}methyl)amino]benzamide trifluoroacetate (salt)] had a 50% inhibitory concentration (IC50) of less than 500 nM.

The compound `COc1cccc(NCc2ccncc2)c1C(=O)Nc1ccc2c(c1)OC(F)(F)O2` [Example 11, N-(2,2-difluoro-1,3-benzodioxol-5-yl)-2-methoxy-6-[(pyridin-4-ylmethyl)amino]benzamide] displayed an IC50 of less than 500 nM.

As for `O=C(NC1CC1)c1cc(CNc2ccccc2C(=O)Nc2ccc3c(c2)OC(F)(F)O3)ccn1` [Example 74, N-cyclopropyl-4-{[(2-{[(2,2-difluoro-1,3-benzodioxol-5-yl)amino]carbonyl}phenyl)amino]methyl}pyridine-2-carboxamide], the IC50 is less than 500 nM.

`CC(C)OCCCNC(=O)c1cc(CNc2ccccc2C(=O)Nc2ccc3c(c2)OC(F)(F)O3)ccn1` [Example 111, 4-{[(2-{[(2,2-difluoro-1,3-benzodioxol-5-yl)amino]carbonyl}phenyl)amino]methyl}-N-(3-isopropoxypropyl)pyridine-2-carboxamide] had a 50% inhibitory concentration (IC50) of less than 500 nM.

`O=C(Nc1ccc2c(c1)OC(F)(F)O2)c1ccccc1NCc1ccnc(NCC2CCCO2)c1` (stereo not shown) [Example 148, N-(2,2-difluoro-1,3-benzodioxol-5-yl)-2-[({2-[(tetrahydrofuran-2-ylmethyl)amino]pyridin-4-yl}methyl)amino]benzamide trifluoroacetate]: the concentration for half-maximal inhibition (IC50) is less than 500 nM.

Consider `CCN(CC)CCNC(=O)c1cc(CNc2ccccc2C(=O)Nc2ccc3c(c2)OC(F)(F)O3)ccn1` [Example 88, N-[2-(diethylamino)ethyl]-4-{[(2{[(2,2-difluoro-1,3-benzodioxol-5-yl)amino]carbonyl}phenyl)amino]methyl}pyridine-2-carboxamide], for which the 50% inhibitory concentration (IC50) was less than 500 nM.

The compound `CS(=O)(=O)CCNC(=O)c1cc(CNc2ccccc2C(=O)Nc2ccc3c(c2)OC(F)(F)O3)ccn1` [Example 83, 4-{[(2-{[(2,2-Difluoro-1,3-benzodioxol-5-yl)amino]carbonyl}phenyl)amino]methyl}-N-[2-(methylsulfonyl)ethyl]pyridine-2-carboxamide] yielded an IC50 of less than 500 nM.

What is called IC50 is the point on the concentration scale where inhibition reaches its midpoint. The low end stands for higher potency, the high end for lower potency.
